Experimental data published in publication PMC4729890 (Frontiers in Molecular Neuroscience, 2016).

What was measured:
[1] = biological target: T1, ROS-GC1 (Bos taurus, UniProt P55203, F570S); test: biochemical
T1 construct: gene GUCY2D

[2] = biological target: T2, ROS-GC1 (Bos taurus, UniProt P55203); test: biochemical
T2 construct: gene GUCY2D
T2 sequence (P55203 57-1110): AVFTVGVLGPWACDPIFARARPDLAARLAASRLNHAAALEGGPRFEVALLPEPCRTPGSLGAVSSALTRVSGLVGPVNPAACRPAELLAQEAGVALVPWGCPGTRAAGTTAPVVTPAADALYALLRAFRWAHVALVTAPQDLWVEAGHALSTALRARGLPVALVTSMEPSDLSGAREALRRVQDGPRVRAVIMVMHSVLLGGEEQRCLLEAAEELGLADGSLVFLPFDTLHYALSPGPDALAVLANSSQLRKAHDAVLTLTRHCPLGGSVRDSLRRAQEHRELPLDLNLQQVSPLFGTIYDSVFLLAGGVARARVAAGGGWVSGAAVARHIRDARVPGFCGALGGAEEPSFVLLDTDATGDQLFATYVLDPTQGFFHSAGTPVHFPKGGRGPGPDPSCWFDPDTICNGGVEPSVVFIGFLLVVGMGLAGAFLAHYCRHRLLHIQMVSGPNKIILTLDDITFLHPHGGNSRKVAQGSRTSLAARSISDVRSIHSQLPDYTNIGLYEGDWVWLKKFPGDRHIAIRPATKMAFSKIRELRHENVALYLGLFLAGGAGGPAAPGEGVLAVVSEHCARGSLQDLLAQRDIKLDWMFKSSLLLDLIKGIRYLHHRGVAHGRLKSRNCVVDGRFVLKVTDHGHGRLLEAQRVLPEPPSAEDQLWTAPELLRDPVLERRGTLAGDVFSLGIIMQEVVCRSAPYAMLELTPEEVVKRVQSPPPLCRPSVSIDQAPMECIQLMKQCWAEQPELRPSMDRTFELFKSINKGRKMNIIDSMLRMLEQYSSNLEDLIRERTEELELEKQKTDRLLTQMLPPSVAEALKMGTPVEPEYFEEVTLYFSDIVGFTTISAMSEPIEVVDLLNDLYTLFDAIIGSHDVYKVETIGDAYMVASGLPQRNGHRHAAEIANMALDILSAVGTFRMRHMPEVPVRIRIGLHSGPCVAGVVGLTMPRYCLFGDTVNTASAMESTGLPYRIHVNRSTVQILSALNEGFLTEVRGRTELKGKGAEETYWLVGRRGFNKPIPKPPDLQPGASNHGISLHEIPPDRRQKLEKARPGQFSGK

T1 sequence (P55203 57-1110 F570S): as the sequence (P55203 57-1110) above, with F514S counted along it

EC50 [1]: 25 mM
EC50 [2]: 16 mM
Compound: O=C(O)O [bicarbonate]
